Converted amounts (≈) assume the structure as drawn. Read-outs that look alike come from different tables or passages of the source.

The nature of data set [1]: Apparent solubility study (24 h, 25 °C, HPLC). It is filed as physicochemical. How it is done: (§1) The injection volume differed depending on the assay. […] The duration of the run was 10 min.
Phosphate buffer at pH 6.8 was prepared as follows: 250 mL of 0.2 N potassium dihydrogen phosphate solution was placed in a 1000 mL volumetric flask, and then 112 mL of 0.2 N sodium hydroxide solution was added. The volume was made up to 1000 mL with purified water. Hydrochloric acid solution pH 1.2 was prepared from the analytically weighed amount following the manufacturer’s (Alfachem, Poznań, Poland) recommendations.
An excess amount of powder (corresponding to 6 mg of each active substance) was placed in a 10 mL glass tube. Then, 2.0 mL of phosphate buffer (pH 6.8) or HCl solution (pH 1.2) was added and stirred at 100 rpm at room temperature (25 ± 0.1 °C) for 24 h.

The nature of data set [2]: PAMPA GIT permeability assay. The following applies: GIT model, donor pH ≈6.8, 4 h, 37 °C. It counts as in vitro ADME. Here is the method: as §1
The conditions of data set [3]: PAMPA, 4 h, pH 7.4. (The PAMPA barrier holds no transporters, so it reflects passive diffusion.)
Experimental: Concentrations of curcumin and hesperetin in samples collected during solubility, dissolution, and permeability studies were determined using HPLC with the DAD detector (HPLC-DAD). Shimadzu Nexera (Shimadzu Corp., Kyoto, Japan) equipped with an SCL-40 system controller, a DGU-403 degassing unit, an LC-40B XR solvent delivery module, a SIL-40C autosampler, a CTO-40C column oven, and an SPD-M40 photodiode array detector were employed in this investigation. For the stationary phase, a Dr. Maisch ReproSil-Pur Basic-C18 100 Å column with 5 µm particle size and 250 × 4.60 mm (Dr. Maisch, Ammerbuch-Entringen, Germany) was used. The mobile phase was HPLC-grade methanol:0.1% acetic acid (80:20 v/v). The mobile phase was vacuum filtered through a 0.45 µm nylon filter (Phenomenex, Torrance, CA, USA). The experimental conditions were as follows: a 1.0 mL/min flow rate, a wavelength of 420 nm for curcumin and 288 nm for hesperetin, and a column temperature of 30 °C. The injection volume differed depending on the assay. For the solubility study, it was 2 µL, whereas for the dissolution and permeability assays, it was 10 µL. […]
In vitro, gastrointestinal (GIT) and blood–brain barrier (BBB) permeability was studied using the Parallel Artificial Membrane Permeability Assay (PAMPA) models. […] The results are expressed as a concentration of the compound in the acceptor solution.

Take `COc1cc(/C=C/C(=O)CC(=O)/C=C/c2ccc(O)c(OC)c2)ccc1O` [Curcumin]: the solubility at 24 h amounted to 0.1 ± 0.01 µg/mL (≈ 0.271 µM) in data set [1] (HCl solution, pH 1.2 HCl, read-out: Curcumin Concentration (apparent solubility)) and 0.14 ± 0.02 µg/mL (≈ 0.38 µM) in data set [1] (aqueous buffer, thermodynamic from solid, pH 6.8 phosphate buffer, read-out: Curcumin Concentration (apparent solubility)). Also, the figures for the “Curcumin Concentration in the acceptor solution” value in data set [2] and in data set [3] were 3.34 × 10^−6 ± 1.94 × 10^−6 c mg/mL and 1.86 × 10^−5 ± 2.48 × 10^−6 c mg/mL, respectively.
For `COc1ccc([C@@H]2CC(=O)c3c(O)cc(O)cc3O2)cc1O` [Hesperetin], the solubility at 24 h in data set [1] (HCl solution, simulated gastric fluid, thermodynamic from solid, pH 1.2 HCl, read-out: Hesperetin Concentration (apparent solubility)) was 4 ± 1 µg/mL (≈ 13.2 µM); in data set [1] (aqueous buffer, thermodynamic from solid, pH 6.8 phosphate buffer, read-out: Hesperetin Concentration (apparent solubility)), 5 ± 1 µg/mL (≈ 16.5 µM). The “Hesperetin Concentration in the acceptor solution” value in data set [2] is 2.58 × 10^−5 ± 6.16 × 10^−6 c mg/mL; in data set [3] it was 3.89 × 10^−5 ± 1.66 × 10^−5 c mg/mL.

The record behind these values is article PMC11124940, “Sweeteners Show a Plasticizing Effect on PVP K30—A Solution for the Hot-Melt Extrusion of Fixed-Dose Amorphous Curcumin-Hesperetin Solid Dispersions” (Pharmaceutics, 2024).
